Assay results published in ChEMBL document CHEMBL1201861, “Genomics of Drug Sensitity in Cancer screening data, Wellcome Trust Sanger Institute”.

Key:
Experiment in all cases: cells
Settings in all cases: Homo sapiens
MV4-11 = type: functional, cell-based, MV-4-11;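 further: cell viability readout measuring growth inhibition of human MV-4-11 cells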
Description: SANGER: Inhibition of human MV-4-11 cell growth in a cell viability assay.

SK-MEL-2 = type: functional, cell-based;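 further: growth inhibition of human SK-MEL-2 cells measured with a cell viability assay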
Description: SANGER: Inhibition of human SK-MEL-2 cell growth in a cell viability assay.

L-363 = type: functional, cell-based
Description: SANGER: Inhibition of human L-363 cell growth in a cell viability assay.

KGN = type: functional, cell-based;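 further: growth inhibition of KGN cells, read out with a cell viability assay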
Description: SANGER: Inhibition of human KGN cell growth in a cell viability assay.

RXF 393 = type: functional, cell-based;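 further: growth inhibition of human RXF 393 cells, read out with a cell viability assay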
Description: SANGER: Inhibition of human RXF393 cell growth in a cell viability assay.

NCI-H1770 = type: functional, cell-based;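 further: growth inhibition of NCI-H1770 cells determined with a viability readout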
Description: SANGER: Inhibition of human NCI-H1770 cell growth in a cell viability assay.

ES8 = type: functional, cell-based;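 further: growth inhibition of human ES8 cells, read out with a cell viability assay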
Description: SANGER: Inhibition of human ES8 cell growth in a cell viability assay.

JVM-3 = type: functional, cell-based;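 further: growth inhibition of human JVM-3 cells, read out with a cell viability assay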
Description: SANGER: Inhibition of human JVM-3 cell growth in a cell viability assay.

SF-126 = type: functional, cell-based;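 further: growth inhibition of human SF126 cells, read out with a cell viability assay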
Description: SANGER: Inhibition of human SF126 cell growth in a cell viability assay.

A3-KAW = type: functional, cell-based;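 further: growth inhibition of human A3-KAW cells, read out with a cell viability assay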
Description: SANGER: Inhibition of human A3-KAW cell growth in a cell viability assay.

HEL = type: functional, cell-based;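 further: growth inhibition of HEL cells, read out with a cell viability assay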
Description: SANGER: Inhibition of human HEL cell growth in a cell viability assay.

NB13 = type: functional, cell-based;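 further: cell viability readout measuring growth inhibition of human NB13 cells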
Description: SANGER: Inhibition of human NB13 cell growth in a cell viability assay.

EW-24 = type: functional, cell-based;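 further: human EW-24 cancer cell line, growth inhibition read out via a cell viability assay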
Description: SANGER: Inhibition of human EW-24 cell growth in a cell viability assay.

NCI-H82 = type: functional, cell-based;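 further: growth inhibition of NCI-H82 cells, measured with a cell viability readout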
Description: SANGER: Inhibition of human NCI-H82 cell growth in a cell viability assay.

DMS-114 = type: functional, cell-based
SK-N-DZ = type: functional, cell-based;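 further: growth inhibition of the cancer cell line, read out through a viability assay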
Description: SANGER: Inhibition of human SK-N-DZ cell growth in a cell viability assay.

MHH-PREB-1 = type: functional, cell-based;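 further: cell viability assay measuring inhibition of proliferation of human MHH-PREB-1 cells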
Description: SANGER: Inhibition of human MHH-PREB-1 cell growth in a cell viability assay.

NCI-H446 = type: functional, cell-based;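 further: growth inhibition of NCI-H446 cells determined by a cell viability assay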
Description: SANGER: Inhibition of human NCI-H446 cell growth in a cell viability assay.

ES3 = type: functional, cell-based;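 further: growth inhibition of ES3 cells, read out with a cell viability assay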
Description: SANGER: Inhibition of human ES3 cell growth in a cell viability assay.

TE-11 = type: functional, cell-based;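 further: growth inhibition of human TE-11 cells, read out by a cell viability assay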
Description: SANGER: Inhibition of human TE-11 cell growth in a cell viability assay.

LU-139 = type: functional, cell-based
Description: SANGER: Inhibition of human LU-139 cell growth in a cell viability assay.

ES6 = type: functional, cell-based;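 further: growth inhibition of human ES6 cells, read out with a cell viability assay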
Description: SANGER: Inhibition of human ES6 cell growth in a cell viability assay.

ES7 = type: functional, cell-based;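 further: growth inhibition of cultured human ES7 cells, read out as cell viability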
Description: SANGER: Inhibition of human ES7 cell growth in a cell viability assay.

MS-1 = type: functional, cell-based
Description: SANGER: Inhibition of human MS-1 cell growth in a cell viability assay.

HC-1 = type: functional, cell-based;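 further: growth inhibition of HC-1 cells measured by a cell viability assay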
Description: SANGER: Inhibition of human HC-1 cell growth in a cell viability assay.

HCC1187 = type: functional, cell-based;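 further: growth inhibition of HCC1187 cells, read out with a cell viability assay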
Description: SANGER: Inhibition of human HCC1187 cell growth in a cell viability assay.

RCC10RGB = type: functional, cell-based;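 further: growth inhibition of human RCC10RGB cells, read out by a cell viability assay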
Description: SANGER: Inhibition of human RCC10RGB cell growth in a cell viability assay.

no-10 = type: functional, cell-based;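 further: growth inhibition of no-10 cells, read out with a cell viability assay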
Description: SANGER: Inhibition of human no-10 cell growth in a cell viability assay.

LAMA-84 = type: functional, cell-based;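 further: growth inhibition of LAMA-84 cells, read out with a cell viability assay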
Description: SANGER: Inhibition of human LAMA-84 cell growth in a cell viability assay.

NCI-H23 = type: functional, cell-based;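 further: cell viability assay measuring growth inhibition of NCI-H23 cells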
Description: SANGER: Inhibition of human NCI-H23 cell growth in a cell viability assay.

ES4 = type: functional, cell-based;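 further: growth inhibition of human ES4 cells, read out by a cell viability assay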
Description: SANGER: Inhibition of human ES4 cell growth in a cell viability assay.

PSN1 = type: functional, cell-based;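 further: suppression of growth of human PSN1 cells, read out by a cell viability assay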
Description: SANGER: Inhibition of human PSN1 cell growth in a cell viability assay.

MLMA = type: functional, cell-based;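 further: growth inhibition of MLMA cells (human), determined through a cell viability readout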
Description: SANGER: Inhibition of human MLMA cell growth in a cell viability assay.

NOS-1 = type: functional, cell-based;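 further: growth inhibition of the human NOS-1 cell line, read out with a cell viability assay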
Description: SANGER: Inhibition of human NOS-1 cell growth in a cell viability assay.

IA-LM = type: functional, cell-based;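 further: cell viability assay measuring growth inhibition of human IA-LM cells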
Description: SANGER: Inhibition of human IA-LM cell growth in a cell viability assay.

HDLM-2 = type: functional, cell-based;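 further: cell viability assay measuring suppression of HDLM-2 proliferation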
Description: SANGER: Inhibition of human HDLM-2 cell growth in a cell viability assay.

NB69 = type: functional, cell-based;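 further: growth inhibition of NB69 cells, determined by a cell viability assay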
Description: SANGER: Inhibition of human NB69 cell growth in a cell viability assay.

KP-N-YS = type: functional, cell-based;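 further: cell viability assay measuring inhibition of cell line growth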
Description: SANGER: Inhibition of human KP-N-YS cell growth in a cell viability assay.

SBC-1 = type: functional, cell-based;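 further: cell viability assay measuring growth inhibition of the SBC-1 cell line, IC50 being the concentration that halves growth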
Description: SANGER: Inhibition of human SBC-1 cell growth in a cell viability assay.

SNU1 = type: functional, cell-based;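 further: growth inhibition of human NCI-SNU-1 cells, measured with a cell viability assay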
Description: SANGER: Inhibition of human NCI-SNU-1 cell growth in a cell viability assay.

EM-2 = type: functional, cell-based;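 further: growth inhibition of EM-2 cells, read out with a cell viability assay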
Description: SANGER: Inhibition of human EM-2 cell growth in a cell viability assay.

DJM-1 = type: functional, cell-based;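 further: growth inhibition of human DJM-1 cells, read out by a cell viability assay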
Description: SANGER: Inhibition of human DJM-1 cell growth in a cell viability assay.

MC116 = type: functional, cell-based;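 further: growth inhibition of MC116 cells, read out with a cell viability assay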
Description: SANGER: Inhibition of human MC116 cell growth in a cell viability assay.

C8166 = type: functional, cell-based;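 further: growth inhibition of human C8166 cells measured by a cell viability assay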
Description: SANGER: Inhibition of human C8166 cell growth in a cell viability assay.

GCIY = type: functional, cell-based;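 further: growth inhibition of the human GCIY cell line, read out by a cell viability assay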
Description: SANGER: Inhibition of human GCIY cell growth in a cell viability assay.

IST-MEL1 = type: functional, cell-based;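 further: growth inhibition of the cell line, read out with a cell viability assay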
Description: SANGER: Inhibition of human IST-MEL1 cell growth in a cell viability assay.

NCI-H1299 = type: functional, cell-based;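 further: growth inhibition of human NCI-H1299 cells, read out by a cell viability assay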
Description: SANGER: Inhibition of human NCI-H1299 cell growth in a cell viability assay.

HCC2218 = type: functional, cell-based;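 further: cell viability assay read-out, with IC50 given as the concentration that inhibits growth of the cell line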
Description: SANGER: Inhibition of human HCC2218 cell growth in a cell viability assay.

NCI-H720 = type: functional, cell-based;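 further: growth inhibition of human NCI-H720 cells determined by a cell viability assay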
Description: SANGER: Inhibition of human NCI-H720 cell growth in a cell viability assay.

NCI-H747 = type: functional, cell-based;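 further: growth inhibition of human NCI-H747 cells, read out by a cell viability assay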
Description: SANGER: Inhibition of human NCI-H747 cell growth in a cell viability assay.

TK-10 = type: functional, cell-based;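 further: growth inhibition of TK-10 cells, read out in a cell viability assay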
Description: SANGER: Inhibition of human TK10 cell growth in a cell viability assay.

TE-12 = type: functional, cell-based
Description: SANGER: Inhibition of human TE-12 cell growth in a cell viability assay.

Calu-6 = type: functional, cell-based
Description: SANGER: Inhibition of human Calu-6 cell growth in a cell viability assay.

DEL = type: functional, cell-based
Description: SANGER: Inhibition of human DEL cell growth in a cell viability assay.

A388 = type: functional, cell-based
Description: SANGER: Inhibition of human A388 cell growth in a cell viability assay.

RPMI-8866 = type: functional, cell-based
Description: SANGER: Inhibition of human RPMI-8866 cell growth in a cell viability assay.

HOP-62 = type: functional, cell-based
Description: SANGER: Inhibition of human HOP-62 cell growth in a cell viability assay.

MZ1-PC = type: functional, cell-based
Description: SANGER: Inhibition of human MZ1-PC cell growth in a cell viability assay.

NCI-H2126 = type: functional, cell-based
Description: SANGER: Inhibition of human NCI-H2126 cell growth in a cell viability assay.

Becker = type: functional, cell-based
Description: SANGER: Inhibition of human Becker cell growth in a cell viability assay.

MZ7-mel = type: functional, cell-based
Description: SANGER: Inhibition of human MZ7-mel cell growth in a cell viability assay.

BB65-RCC = type: functional, cell-based
Description: SANGER: Inhibition of human BB65-RCC cell growth in a cell viability assay.

GT3TKB = type: functional, cell-based
Description: SANGER: Inhibition of human GT3TKB cell growth in a cell viability assay.

A704 = type: functional, cell-based
Description: SANGER: Inhibition of human A704 cell growth in a cell viability assay.

D-502MG = type: functional, cell-based
Description: SANGER: Inhibition of human D-502MG cell growth in a cell viability assay.

NB5 = type: functional, cell-based
Description: SANGER: Inhibition of human NB5 cell growth in a cell viability assay.

`CC(O)(CS(=O)(=O)c1ccc(F)cc1)C(=O)Nc1ccc(C#N)c(C(F)(F)F)c1` (configuration not stated) [BICALUTAMIDE] gave an IC50 (MV4-11) greater than 1.02 µM, an IC50 (SK-MEL-2) greater than 1.02 µM and an IC50 (L-363) greater than 1.02 µM. The IC50 (KGN) was greater than 1.02 µM, the IC50 (RXF 393) was greater than 1.02 µM and the IC50 (NCI-H1770) was greater than 1.02 µM. For the same compound, the IC50 (ES8) was greater than 1.02 µM, the IC50 (JVM-3) was greater than 1.02 µM and the IC50 (SF-126) was greater than 1.02 µM. For the same compound, the IC50 (A3-KAW) was greater than 1.02 µM, the IC50 (HEL) was greater than 1.02 µM and the IC50 (NB13) was greater than 1.02 µM. The IC50 (EW-24) was greater than 1.02 µM, the IC50 (NCI-H82) was greater than 1.02 µM and the IC50 (DMS-114) was greater than 1.02 µM. It also gave an IC50 (SK-N-DZ) greater than 1.02 µM, an IC50 (MHH-PREB-1) greater than 1.02 µM and an IC50 (NCI-H446) greater than 1.02 µM. The IC50 (ES3) was greater than 1.02 µM, the IC50 (TE-11) was greater than 1.02 µM and the IC50 (LU-139) was greater than 1.02 µM. The IC50 (ES6) was greater than 1.02 µM, the IC50 (ES7) was greater than 1.02 µM and the IC50 (MS-1) was greater than 1.02 µM. For the same compound, the IC50 (HC-1) was greater than 1.02 µM, the IC50 (HCC1187) was greater than 1.02 µM and the IC50 (RCC10RGB) was greater than 1.02 µM. It also gave an IC50 (no-10) greater than 1.02 µM, an IC50 (LAMA-84) greater than 1.02 µM and an IC50 (NCI-H23) greater than 1.02 µM. It also gave an IC50 (ES4) greater than 1.02 µM, an IC50 (PSN1) greater than 1.02 µM and an IC50 (MLMA) greater than 1.02 µM. The IC50 (NOS-1) was greater than 1.02 µM, the IC50 (IA-LM) was greater than 1.02 µM and the IC50 (HDLM-2) was greater than 1.02 µM. For the same compound, the IC50 (NB69) was greater than 1.02 µM, the IC50 (KP-N-YS) was greater than 1.02 µM and the IC50 (SBC-1) was greater than 1.02 µM. It also gave an IC50 (SNU1) greater than 1.02 µM, an IC50 (EM-2) greater than 1.02 µM and an IC50 (DJM-1) greater than 1.02 µM. The IC50 (MC116) was greater than 1.02 µM, the IC50 (C8166) was greater than 1.02 µM and the IC50 (GCIY) was greater than 1.02 µM. The IC50 (IST-MEL1) was greater than 1.02 µM, the IC50 (NCI-H1299) was greater than 1.02 µM and the IC50 (HCC2218) was greater than 1.02 µM. It also gave an IC50 (NCI-H720) greater than 1.02 µM, an IC50 (NCI-H747) greater than 1.02 µM and an IC50 (TK-10) greater than 1.02 µM. The IC50 (TE-12) was greater than 1.02 µM, the IC50 (Calu-6) was greater than 1.02 µM and the IC50 (DEL) was greater than 1.02 µM. For the same compound, the IC50 (A388) was greater than 1.02 µM, the IC50 (RPMI-8866) was greater than 1.02 µM and the IC50 (HOP-62) was greater than 1.02 µM. For the same compound, the IC50 (MZ1-PC) was greater than 1.02 µM, the IC50 (NCI-H2126) was greater than 1.02 µM and the IC50 (Becker) was greater than 1.02 µM. It also gave an IC50 (MZ7-mel) greater than 1.02 µM, an IC50 (BB65-RCC) greater than 1.02 µM and an IC50 (GT3TKB) greater than 1.02 µM. The IC50 (A704) was greater than 1.02 µM, the IC50 (D-502MG) was greater than 1.02 µM and the IC50 (NB5) was greater than 1.02 µM.

In the case of `COc1cc(Nc2c(C#N)cnc3cc(OCCCN4CCN(C)CC4)c(OC)cc23)c(Cl)cc1Cl` [BOSUTINIB], the IC50 (MV4-11) is reported as 1.7 µM, the IC50 (SK-MEL-2) is reported as greater than 2 µM and the IC50 (L-363) is reported as greater than 2 µM. The IC50 (KGN) was greater than 2 µM, the IC50 (RXF 393) was greater than 2 µM and the IC50 (NCI-H1770) was greater than 2 µM. For the same compound, the IC50 (ES8) was greater than 2 µM, the IC50 (JVM-3) was 1.05 µM and the IC50 (SF-126) was greater than 2 µM. For the same compound, the IC50 (A3-KAW) was 0.792 µM, the IC50 (HEL) was greater than 2 µM and the IC50 (NB13) was greater than 2 µM. For the same compound, the IC50 (EW-24) was greater than 2 µM, the IC50 (NCI-H82) was greater than 2 µM and the IC50 (DMS-114) was greater than 2 µM. The IC50 (SK-N-DZ) was greater than 2 µM, the IC50 (MHH-PREB-1) was greater than 2 µM and the IC50 (NCI-H446) was greater than 2 µM. The IC50 (ES3) was greater than 2 µM, the IC50 (TE-11) was greater than 2 µM and the IC50 (LU-139) was greater than 2 µM. It also gave an IC50 (ES6) greater than 2 µM, an IC50 (ES7) greater than 2 µM and an IC50 (MS-1) greater than 2 µM. For the same compound, the IC50 (HC-1) was greater than 2 µM, the IC50 (HCC1187) was greater than 2 µM and the IC50 (RCC10RGB) was greater than 2 µM. For the same compound, the IC50 (no-10) was greater than 2 µM, the IC50 (LAMA-84) was 0.287 µM and the IC50 (NCI-H23) was greater than 2 µM. For the same compound, the IC50 (ES4) was 1.21 µM, the IC50 (PSN1) was greater than 2 µM and the IC50 (MLMA) was 0.907 µM. For the same compound, the IC50 (NOS-1) was greater than 2 µM, the IC50 (IA-LM) was greater than 2 µM and the IC50 (HDLM-2) was greater than 2 µM. The IC50 (NB69) was greater than 2 µM, the IC50 (KP-N-YS) was greater than 2 µM and the IC50 (SBC-1) was greater than 2 µM. It also gave an IC50 (SNU1) greater than 2 µM, an IC50 (EM-2) of 0.439 µM and an IC50 (DJM-1) greater than 2 µM. It also gave an IC50 (MC116) greater than 2 µM, an IC50 (C8166) greater than 2 µM and an IC50 (GCIY) greater than 2 µM. The IC50 (IST-MEL1) was greater than 2 µM, the IC50 (NCI-H1299) was greater than 2 µM and the IC50 (HCC2218) was greater than 2 µM. For the same compound, the IC50 (NCI-H720) was greater than 2 µM, the IC50 (NCI-H747) was greater than 2 µM and the IC50 (TK-10) was greater than 2 µM. For the same compound, the IC50 (TE-12) was greater than 2 µM, the IC50 (Calu-6) was greater than 2 µM and the IC50 (DEL) was 1.44 µM. The IC50 (A388) was greater than 2 µM, the IC50 (RPMI-8866) was 1.26 µM and the IC50 (HOP-62) was greater than 2 µM. For the same compound, the IC50 (MZ1-PC) was greater than 2 µM, the IC50 (NCI-H2126) was greater than 2 µM and the IC50 (Becker) was greater than 2 µM. It also gave an IC50 (MZ7-mel) greater than 2 µM, an IC50 (BB65-RCC) of 1.9 µM and an IC50 (GT3TKB) greater than 2 µM. For the same compound, the IC50 (A704) was greater than 2 µM, the IC50 (D-502MG) was greater than 2 µM and the IC50 (NB5) was greater than 2 µM.
